Source: ChEMBL document CHEMBL3885861, “Open TG-GATES”

Species on record: Rattus norvegicus
Assay: Open TG-GATES - Regimen: Daily Repeat
Type: toxicity, organism-based, Sprague-Dawley
Parameters: regimen Daily Repeat, gender Male, age 6 weeks
Settings: in vivo, po, route gavage; for APTT / Bas / Eos / Fbg / Hb / Ht / Lym / MCH / MCHC / MCV / Mono / Neu / PT / Plat / RBC / Ret / WBC: tissue Blood; for KIDNEY_L / KIDNEY_R / KIDNEY_TOTAL: tissue Kidney; for LIVER: tissue Liver; for A/G / ALP / ALT / AST / BUN / CRE / Ca / Cl / DBIL / GLC / IP / K / LDH / Na / PL / RALB / TBIL / TC / TG / TP / gamma-GTP: tissue Plasma
[1] = 300 mg/kg, 72 h, dose level Middle, time 3 day
[2] = 300 mg/kg, […], dose level Middle, time 7 day
[3] = 300 mg/kg, […], dose level Middle, time 14 day
[4] = 300 mg/kg, […], dose level Middle, time 28 day
[5] = 1000 mg/kg, 72 h, dose level High, time 3 day
[6] = 1000 mg/kg, […], dose level High, time 7 day
[7] = 1000 mg/kg, […], dose level High, time 14 day
[8] = 1000 mg/kg, […], dose level High, time 28 day

CCCCNC(=O)NS(=O)(=O)c1ccc(C)cc1 [TOLBUTAMIDE]
TERMINAL_BW [1]: 233.2 g
APTT [1]: 17 s
Bas [1]: 0%
Eos [1]: 1%
Fbg [1]: 287.2 mg/dL
Hb [1]: 13.7 g/dL
Ht [1]: 41.8%
Lym [1]: 80%
MCH [1]: 20.8 pg
MCHC [1]: 32.8%
MCV [1]: 63.2 fL
Mono [1]: 2.6%
Neu [1]: 15.6%
PT [1]: 13 s
Plat [1]: 122.8 x10_4/uL
RBC [1]: 661 x10_4/ul
Ret [1]: 6.3%
WBC [1]: 108 x10_2/uL
KIDNEY_L [1]: 1 g
KIDNEY_R [1]: 1 g
KIDNEY_TOTAL [1]: 2 g
LIVER [1]: 10.8 g
A/G [1]: 0.9
ALP [1]: 1683.8 IU/L
ALT [1]: 49.4 IU/L
AST [1]: 70.2 IU/L
BUN [1]: 13.2 mg/dL
CRE [1]: 0.2 mg/dL
Ca [1]: 11.1 mg/dL
Cl [1]: 105 meq/L
DBIL [1]: 0.01 mg/dL
GLC [1]: 176.6 mg/dL
IP [1]: 8.2 mg/dL
K [1]: 4 meq/L
LDH [1]: 69.8 IU/L
Na [1]: 142.4 meq/L
PL [1]: 151 mg/dL
RALB [1]: 2.6 g/dL
TBIL [1]: 0.062 mg/dL
TC [1]: 79.2 mg/dL
TG [1]: 86.4 mg/dL
TP [1]: 5.5 g/dL
gamma-GTP [1]: 1 IU/L
TERMINAL_BW [2]: 265.6 g
TERMINAL_BW [3]: 327.4 g
TERMINAL_BW [4]: 387.4 g
APTT [2]: 17.8 s
Bas [2]: 0.4%
Eos [2]: 1%
Fbg [2]: 287 mg/dL
Hb [2]: 14 g/dL
Ht [2]: 42.1%
Lym [2]: 81.6%
MCH [2]: 20.9 pg
MCHC [2]: 33.3%
MCV [2]: 62.5 fL
Mono [2]: 2.2%
Neu [2]: 14.6%
PT [2]: 12.7 s
Plat [2]: 118.8 x10_4/uL
RBC [2]: 674.4 x10_4/ul
Ret [2]: 5.3%
WBC [2]: 114.8 x10_2/uL
APTT [3]: 18 s
Bas [3]: 0.4%
Eos [3]: 1%
Fbg [3]: 290.4 mg/dL
Hb [3]: 14.6 g/dL
Ht [3]: 44.4%
Lym [3]: 78.2%
MCH [3]: 19.6 pg
MCHC [3]: 32.8%
MCV [3]: 59.8 fL
Mono [3]: 1.8%
Neu [3]: 18.4%
PT [3]: 12.8 s
Plat [3]: 120.3 x10_4/uL
RBC [3]: 743.4 x10_4/ul
Ret [3]: 4.3%
WBC [3]: 98.4 x10_2/uL
APTT [4]: 20 s
Bas [4]: 0.6%
Eos [4]: 1%
Fbg [4]: 266.6 mg/dL
Hb [4]: 15.4 g/dL
Ht [4]: 45.4%
Lym [4]: 81.4%
MCH [4]: 18.7 pg
MCHC [4]: 34%
MCV [4]: 55.2 fL
Mono [4]: 2.4%
Neu [4]: 13.8%
PT [4]: 13.4 s
Plat [4]: 102.9 x10_4/uL
RBC [4]: 823.4 x10_4/ul
Ret [4]: 2.2%
WBC [4]: 134 x10_2/uL
KIDNEY_L [2]: 1.1 g
KIDNEY_R [2]: 1.1 g
KIDNEY_TOTAL [2]: 2.2 g
KIDNEY_L [3]: 1.3 g
KIDNEY_R [3]: 1.3 g
KIDNEY_TOTAL [3]: 2.5 g
KIDNEY_L [4]: 1.4 g
KIDNEY_R [4]: 1.4 g
KIDNEY_TOTAL [4]: 2.8 g
LIVER [2]: 12.4 g
LIVER [3]: 14.8 g
LIVER [4]: 15.5 g
A/G [2]: 0.8
ALP [2]: 1624 IU/L
ALT [2]: 42 IU/L
AST [2]: 65.2 IU/L
BUN [2]: 16.6 mg/dL
CRE [2]: 0.2 mg/dL
Ca [2]: 10.8 mg/dL
Cl [2]: 103.8 meq/L
DBIL [2]: 0.008 mg/dL
GLC [2]: 204.8 mg/dL
IP [2]: 7.5 mg/dL
K [2]: 4.1 meq/L
LDH [2]: 57.4 IU/L
Na [2]: 141 meq/L
PL [2]: 161 mg/dL
RALB [2]: 2.5 g/dL
TBIL [2]: 0.052 mg/dL
TC [2]: 76.4 mg/dL
TG [2]: 135.8 mg/dL
TP [2]: 5.6 g/dL
gamma-GTP [2]: 1 IU/L
A/G [3]: 0.8
ALP [3]: 1281 IU/L
ALT [3]: 41.4 IU/L
AST [3]: 69 IU/L
BUN [3]: 16 mg/dL
CRE [3]: 0.2 mg/dL
Ca [3]: 10.9 mg/dL
Cl [3]: 104.2 meq/L
DBIL [3]: 0.012 mg/dL
GLC [3]: 193.4 mg/dL
IP [3]: 6.9 mg/dL
K [3]: 4 meq/L
LDH [3]: 55.4 IU/L
Na [3]: 142.2 meq/L
PL [3]: 158.6 mg/dL
RALB [3]: 2.7 g/dL
TBIL [3]: 0.06 mg/dL
TC [3]: 76.4 mg/dL
TG [3]: 127.2 mg/dL
TP [3]: 5.8 g/dL
gamma-GTP [3]: 1 IU/L
A/G [4]: 0.8
ALP [4]: 1057.2 IU/L
ALT [4]: 39.8 IU/L
AST [4]: 65.6 IU/L
BUN [4]: 16 mg/dL
CRE [4]: 0.2 mg/dL
Ca [4]: 10.7 mg/dL
Cl [4]: 104.2 meq/L
DBIL [4]: 0.01 mg/dL
GLC [4]: 190 mg/dL
IP [4]: 6.7 mg/dL
K [4]: 3.9 meq/L
LDH [4]: 55 IU/L
Na [4]: 142.8 meq/L
PL [4]: 157.2 mg/dL
RALB [4]: 2.8 g/dL
TBIL [4]: 0.06 mg/dL
TC [4]: 74.6 mg/dL
TG [4]: 152.2 mg/dL
TP [4]: 6.1 g/dL
gamma-GTP [4]: 1 IU/L
TERMINAL_BW [5]: 225.8 g
APTT [5]: 17.7 s
Bas [5]: 0%
Eos [5]: 1%
Fbg [5]: 301.6 mg/dL
Hb [5]: 13.7 g/dL
Ht [5]: 41.6%
Lym [5]: 81%
MCH [5]: 21.2 pg
MCHC [5]: 33%
MCV [5]: 64.2 fL
Mono [5]: 2.2%
Neu [5]: 15.2%
PT [5]: 12.8 s
Plat [5]: 129.6 x10_4/uL
RBC [5]: 647.4 x10_4/ul
Ret [5]: 4.2%
WBC [5]: 89.2 x10_2/uL
KIDNEY_L [5]: 1 g
KIDNEY_R [5]: 1 g
KIDNEY_TOTAL [5]: 2.1 g
LIVER [5]: 11.5 g
A/G [5]: 0.9
ALP [5]: 1487 IU/L
ALT [5]: 40.8 IU/L
AST [5]: 69.6 IU/L
BUN [5]: 12.8 mg/dL
CRE [5]: 0.2 mg/dL
Ca [5]: 11 mg/dL
Cl [5]: 105.2 meq/L
DBIL [5]: 0.004 mg/dL
GLC [5]: 172 mg/dL
IP [5]: 7.9 mg/dL
K [5]: 3.9 meq/L
LDH [5]: 75.6 IU/L
Na [5]: 142.4 meq/L
PL [5]: 144 mg/dL
RALB [5]: 2.6 g/dL
TBIL [5]: 0.06 mg/dL
TC [5]: 76.8 mg/dL
TG [5]: 68 mg/dL
TP [5]: 5.5 g/dL
gamma-GTP [5]: 1 IU/L
TERMINAL_BW [6]: 255.2 g
TERMINAL_BW [7]: 306.7 g
TERMINAL_BW [8]: 411.9 g
APTT [6]: 18.1 s
Bas [6]: 0.4%
Eos [6]: 0.6%
Fbg [6]: 267.4 mg/dL
Hb [6]: 13.7 g/dL
Ht [6]: 41.4%
Lym [6]: 80%
MCH [6]: 20.5 pg
MCHC [6]: 33.1%
MCV [6]: 61.9 fL
Mono [6]: 2.4%
Neu [6]: 16.2%
PT [6]: 12.9 s
Plat [6]: 112 x10_4/uL
RBC [6]: 669.6 x10_4/ul
Ret [6]: 5.3%
WBC [6]: 138.8 x10_2/uL
APTT [7]: 19.2 s
Bas [7]: 0.4%
Eos [7]: 0.8%
Fbg [7]: 320 mg/dL
Hb [7]: 14.3 g/dL
Ht [7]: 43.7%
Lym [7]: 82.8%
MCH [7]: 19.3 pg
MCHC [7]: 32.7%
MCV [7]: 59.1 fL
Mono [7]: 1.8%
Neu [7]: 13.8%
PT [7]: 12.5 s
Plat [7]: 127.9 x10_4/uL
RBC [7]: 740 x10_4/ul
Ret [7]: 4.3%
WBC [7]: 116.4 x10_2/uL
APTT [8]: 25 s
Bas [8]: 0.2%
Eos [8]: 1%
Fbg [8]: 269.5 mg/dL
Hb [8]: 15 g/dL
Ht [8]: 45%
Lym [8]: 84.5%
MCH [8]: 18.6 pg
MCHC [8]: 33.5%
MCV [8]: 55.6 fL
Mono [8]: 2%
Neu [8]: 11.2%
PT [8]: 13.5 s
Plat [8]: 102.5 x10_4/uL
RBC [8]: 808.8 x10_4/ul
Ret [8]: 2.1%
WBC [8]: 118.3 x10_2/uL
KIDNEY_L [6]: 1.1 g
KIDNEY_R [6]: 1.1 g
KIDNEY_TOTAL [6]: 2.2 g
KIDNEY_L [7]: 1.2 g
KIDNEY_R [7]: 1.2 g
KIDNEY_TOTAL [7]: 2.4 g
KIDNEY_L [8]: 1.4 g
KIDNEY_R [8]: 1.3 g
KIDNEY_TOTAL [8]: 2.7 g
LIVER [6]: 12.3 g
LIVER [7]: 15 g
LIVER [8]: 18.7 g
A/G [6]: 0.9
ALP [6]: 1609.6 IU/L
ALT [6]: 48.6 IU/L
AST [6]: 71.4 IU/L
BUN [6]: 14.8 mg/dL
CRE [6]: 0.2 mg/dL
Ca [6]: 10.7 mg/dL
Cl [6]: 104 meq/L
DBIL [6]: 0.008 mg/dL
GLC [6]: 189.6 mg/dL
IP [6]: 7.7 mg/dL
K [6]: 4 meq/L
LDH [6]: 55.8 IU/L
Na [6]: 141.8 meq/L
PL [6]: 151.8 mg/dL
RALB [6]: 2.5 g/dL
TBIL [6]: 0.052 mg/dL
TC [6]: 74.2 mg/dL
TG [6]: 94.2 mg/dL
TP [6]: 5.4 g/dL
gamma-GTP [6]: 0.8 IU/L
A/G [7]: 0.9
ALP [7]: 1494.8 IU/L
ALT [7]: 42.4 IU/L
AST [7]: 63.4 IU/L
BUN [7]: 15 mg/dL
CRE [7]: 0.2 mg/dL
Ca [7]: 10.9 mg/dL
Cl [7]: 104.6 meq/L
DBIL [7]: 0.01 mg/dL
GLC [7]: 192.6 mg/dL
IP [7]: 6.8 mg/dL
K [7]: 3.8 meq/L
LDH [7]: 49.4 IU/L
Na [7]: 142.4 meq/L
PL [7]: 157.2 mg/dL
RALB [7]: 2.7 g/dL
TBIL [7]: 0.056 mg/dL
TC [7]: 72 mg/dL
TG [7]: 136.8 mg/dL
TP [7]: 5.9 g/dL
gamma-GTP [7]: 1 IU/L
A/G [8]: 0.8
ALP [8]: 1194 IU/L
ALT [8]: 36.5 IU/L
AST [8]: 59 IU/L
BUN [8]: 17.2 mg/dL
CRE [8]: 0.3 mg/dL
Ca [8]: 10.8 mg/dL
Cl [8]: 105.2 meq/L
DBIL [8]: 0.01 mg/dL
GLC [8]: 203.2 mg/dL
IP [8]: 6.5 mg/dL
K [8]: 3.7 meq/L
LDH [8]: 53.5 IU/L
Na [8]: 143.2 meq/L
PL [8]: 132 mg/dL
RALB [8]: 2.7 g/dL
TBIL [8]: 0.05 mg/dL
TC [8]: 58.2 mg/dL
TG [8]: 111.5 mg/dL
TP [8]: 6 g/dL
gamma-GTP [8]: 1 IU/L
